EC50, CC50 and melting point data for 25 molecules are collected here from patent publication US6906198B1, “Antipicornaviral compounds, their preparation and use” (Agouron Pharmaceuticals, Inc., priority 1998, dated 2005).

Like-named read-outs stand apart in the source and are kept apart here.

In one series the test system is HRV-14. The series is described as follows: Antirhinoviral H1-HeLa cell culture assay (XTT), HRV-14. Format: cell-based, human rhinovirus. The protocol: Antirhinoviral H1-HeLa Cell Culture Assay
In this cell protection assay, the ability of compounds to protect cells against HRV infection was measured by the XTT dye reduction method, which is described in Weislow et al., J. Natl. Cancer Inst. 1989, vol. 81, 577-586.
(§1) H1-HeLa cells were infected with HRV-14 at a multiplicity of infection (m.o.i.) of 0.13 (virus particles/cell) or mock-infected with medium only. Infected or mock-infected cells were resuspended at 8×10^5 cells per mL, and incubated with appropriate concentrations of the compounds to be tested. Two days later, XTT/PMS was added to test plates and the amount of formazan produced was quantified spectrophotometrically at 450/650 nm. The EC50 value was calculated as the concentration of compound that increased the percentage of formazan production in compound-treated, virus-infected cells to 50% of that produced by compound-free, mock-infected cells. The 50% cytotoxic dose (CC50) was calculated as the concentration of compound that decreased the percentage of formazan produced in compound-treated, mock-infected cells to 50% of that produced by compound-free, mock-infected cells. The therapeutic index (TI) was calculated by dividing the CC50 value by the EC50 value.
(§2) All strains of human rhinovirus (HRV) for use in this assay were purchased from American Type Culture Collection (ATCC), except for HRV serotype-14 (produced from the infectious cDNA clone constructed by Dr. Robert Rueckert, Institute for Molecular Virology, University of Wisconsin, Madison, Wis.). HRV stocks were propagated and viral assays were performed in H1-HeLa cells (ATCC). Cells were grown in minimal essential medium with 10% fetal bovine serum, available from Life Technologies (Gaithersburg, Md.).
The compounds were tested against control compounds WIN 51711, WIN 52084, and WIN 54954 (obtained from Sterling-Winthrop Pharmaceuticals), Pirodavir (obtained from Janssen Pharmaceuticals), and Pleconaril (prepared according to the method described in Diana et al., J. Med. Chem 1995, vol. 38, 1355). Antiviral data obtained for the test compounds are shown in Tables 1 and 3, where all data are for HRV serotype-14 unless otherwise noted in parentheses.

Series [1] is described as follows: Cytotoxicity in mock-infected H1-HeLa cells (antirhinoviral assay, XTT). Format: cell-based. The settings on record: human, 50% cytotoxic dose. As to the method:
as §1, §2
On the technique in general: Formazan colour is commonly taken as a measure of viable cells.

The mark [2] stands for this setting: HRV serotype-14, H1-HeLa cells (Table 1), read-out: Cell Protection EC50.
Setting [3] is: HRV serotype-14, H1-HeLa cells (Table 3), read-out: EC50.

Regarding `CCOC(=O)/C=C/[C@H](CCC(N)=O)NC(=O)[C@H](Cc1ccccc1)NC(=O)[C@H](CC(C)C)NC(=O)c1cc(C)oc1C` [(A-20)], the half-maximal effective concentration (EC50) in the series on HRV-14 (setting [2]) and with HRV-14 (setting [3]) was 12.6 µM throughout.

`CCOC(=O)/C=C/[C@H](CCC(N)=O)NC(=O)[C@H](Cc1ccccc1)NC(=O)[C@H](CC(C)C)NC(=O)OCc1ccccc1` [Comparison Compound #2, Ethyl-3-(Cbz-L-Leu-L-Phe-L-Gln)-E-Propenoate] yielded a melting point of 219 to 221 °C. This molecule also gave a 50% cytotoxic concentration (CC50) at 2 days in series [1] greater than 320 µM.

`CCOC(=O)/C=C/[C@H](CCC(N)=O)NC(=O)[C@H](Cc1ccc(F)cc1)N(C)C(=O)[C@H](Cc1c[nH]cn1)NC(=O)c1cc(C)on1` [(A-9), Ethyl-3-{(5′-Methylisoxazole-3′-carbonyl)-L-His-NCH3-L-(4-F-Phe)-L-Gln}-E-Propenoate] registered a CC50 at 2 days in series [1] greater than 100 µM.

Take `CCOC(=O)/C=C/[C@H](CCC(N)=O)NC(=O)[C@H](Cc1ccc(F)cc1)N(C)C(=O)[C@H](Cc1ccc2ccccc2c1)NC(=O)c1cc(C)on1` [(A-11), Ethyl-3-{(5′-Methylisoxazole-3′-carbonyl)-L-(2-Naphth)-NCH3-L-(4-F-Phe)-L-Gln}-E-Propenoate]: the half-maximal cytotoxic concentration (CC50) at 2 days in series [1] turned out to be 50 µM.

With `CCOC(=O)/C=C/[C@H](CCC(N)=O)NC(=O)[C@H](Cc1ccc(F)cc1)NC(=O)[C@@H](NC(=O)c1cc(C)on1)C(C)C` [(A-6), Ethyl-3-[(5′-Methylisoxazole-3′-carbonyl)-L-Val-L-(4-F-Phe)-L-Gln]-E-Propenoate], the CC50 at 2 days in series [1] is greater than 100 µM.

On to `CCOC(=O)/C=C/[C@H](C[C@H]1CCNC1=O)NC(=O)[C@H](Cc1ccccc1)NC(=O)[C@H](CC(C)C)NC(=O)OCc1ccccc1` [(A-27), Ethyl-3-{Cbz-L-Leu-L-Phe-L-((R)-Pyrrol-Ala)}-E-Propenoate], for which the cytotoxic concentration (CC50) at 2 days in series [1] is greater than 100 µM.

In series [1], `CCOC(=O)/C=C/[C@H](C[C@@H]1CCCNC1=O)NC(=O)[C@H](Cc1ccccc1)NC(=O)[C@H](CC(C)C)NC(=O)OCc1ccccc1` [(A-26), Ethyl-3-{Cbz-L-Leu-L-Phe-L-((S)-Piper-Ala)}-E-Propenoate] gave a CC50 at 2 days greater than 100 µM.

On to `CCOC(=O)/C=C/[C@H](CCC(N)=O)NC(=O)[C@H](Cc1ccccc1)NC(=O)[C@@H](NC(=O)c1cccs1)C(C)(C)C` [(A-14)], for which the EC50 in the series on HRV-14 (setting [2]) and in the series on HRV-14 (setting [3]) was 0.48 µM in each case.

Regarding `CCOC(=O)/C=C/[C@H](CCC(N)=O)NC(=O)[C@H](Cc1ccc(C)cc1)NC(=O)[C@@H](NC(=O)c1cc(C)on1)C(C)(C)C` [(A-3), Ethyl-3-((5′-Methylisoxazole-3′-carbonyl)-L-α-(t-Butyl-Gly)-L-(4-Me-Phe)-L-Gln)-E-Propenoate], the half-maximal cytotoxic concentration (CC50) at 2 days in series [1] is greater than 10 µM.

Molecule `CCOC(=O)/C=C/[C@H](C[C@@H]1CCNC1=O)NC(=O)[C@H](Cc1ccc(F)cc1)OC(=O)[C@@H](NC(=O)c1cc(C)on1)C(C)C` [(C-2), Ethyl-3-{(5′-Methylisoxazole-3′-carbonyl)-L-Val-O-L-(4-F-Phe)-L-((S)-Pyrrol-Ala)}-E-Propenoate] registered a CC50 at 2 days in series [1] greater than 10 µM.

Turning to `CCOC(=O)/C=C/[C@H](CCC(N)=O)NC(=O)[C@H](Cc1ccccc1)NC(=O)[C@H](CC(C)C)NC(=O)[C@@H]1C=CCN1` [(A-19)], the EC50 in the series with HRV-14 (setting [2]) and in the series with HRV-14 (setting [3]) was 25.1 µM in each case.

`CCOC(=O)/C=C/[C@H](C[C@@H]1CCNC1=O)NC(=O)[C@H](Cc1ccccc1)NC(=O)[C@@H](NC(=O)OCc1ccccc1)C(C)C` [(A-25), Ethyl-3-{Cbz-L-Val-L-Phe-L-((S)-Pyrrol-Ala)}-E-Propenoate] displayed a cytotoxic concentration (CC50) at 2 days in series [1] greater than 100 µM.

For `CCOC(=O)/C=C/[C@H](CCC(N)=O)NC(=O)[C@H](Cc1ccccc1)N(C)C(=O)[C@H](CC(C)C)NC(=O)c1cc(C)on1` [(A-10), Ethyl-3-((5′-Methylisoxazole-3′-carbonyl)-L-Leu-NCH3-L-Phe-L-Gln}-E-Propenoate], the EC50 in the series with HRV-14 (Rhinovirus B, HRV14, HRV serotype-14, H1-HeLa cells (Table 1), read-out: Cell Protection EC50) was 0.14 µM; in the series on HRV-14 (Rhinovirus B, HRV14, HRV serotype-14, H1-HeLa cells (Table 3), read-out: EC50), 0.14 µM. Further, in series [1], the CC50 at 2 days was greater than 100 µM.

On to `CCOC(=O)/C=C/[C@H](CN1CCNC1=O)NC(=O)[C@H](Cc1ccccc1)NC(=O)[C@H](CC(C)C)NC(=O)OCc1ccccc1`, for which the melting point was 161 to 164 °C.

For `CCOC(=O)/C=C/[C@H](CCC(N)=O)NC(=O)[C@H](Cc1ccccc1)NC(=O)[C@H](CC(C)C)NC(=O)c1nc(C)c[nH]1` [(A-21)], the 50% effective concentration (EC50) in the series with HRV-14 (setting [2]) and in the series with HRV-14 (setting [3]) was 2.5 µM throughout.

The molecule `CCOC(=O)/C=C/[C@H](CCC(N)=O)NC(=O)[C@H](Cc1ccc(F)cc1)N(C)C(=O)[C@H](Cc1cccc2ccccc12)NC(=O)c1cc(C)on1` [(A-13), Ethyl-3-{(5′-Methylisoxazole-3′-carbonyl)-L-(1-Naphth)-NCH3-L-(4-F-Phe)-L-Gln}-E-Propenoate] registered a 50% cytotoxic concentration (CC50) at 2 days in series [1] greater than 10 µM.

Consider `CC(C)[C@H](NC(=O)C1SCCS1)C(=O)N[C@@H](Cc1ccc(F)cc1)C(=O)N[C@H](/C=C/C(=O)OCc1cccnc1)CCC(N)=O` [(A-18)], for which the EC50 in the series with HRV-14 (setting [2]) and in the series with HRV-14 (setting [3]) was 1.5 µM throughout.

Take `CCOC(=O)/C=C/[C@H](C[C@@H]1CCNC1=O)NC(=O)[C@H](Cc1ccccc1)NC(=O)[C@H](CC(C)C)NC(=O)OCc1ccccc1` [(A-24), Ethyl-3-{Cbz-L-Leu-L-Phe-L-((S)-Pyrrol-Ala)}-E-Propenoate]: the 50% cytotoxic concentration (CC50) at 2 days in series [1] was greater than 100 µM.

In the case of `CCOC(=O)/C=C/[C@H](CCC(N)=O)NC(=O)[C@H](Cc1ccc(F)cc1)NC(=O)[C@@H](NC(=O)c1cc(C)on1)C(C)(C)C` [(A-4), Ethyl-3-((5′-Methylisoxazole-3′-carbonyl)-L-α-(t-Butyl-Gly)-L-(4-F-Phe)-L-Gln)-E-Propenoate], in series [1], the CC50 at 2 days is greater than 100 µM.

With `CCOC(=O)/C=C/[C@H](CCC(N)=O)NC(=O)[C@H](Cc1ccc(F)cc1)OC(=O)[C@@H](NC(=O)c1cc(C)on1)C(C)C` [(C-1), Ethyl-3-{(5′-Methylisoxazole-3′-carbonyl)-L-Val-O-L-(4-F-Phe)-L-Gln}-E-Propenoate], the 50% cytotoxic concentration (CC50) at 2 days in series [1] is greater than 10 µM.

In the case of `CCOC(=O)/C=C/[C@H](C[C@@H]1CCCNC1=O)NC(=O)[C@@H](CC(=O)[C@@H](NC(=O)c1cc(C)on1)C(C)C)Cc1ccc(F)cc1` [(B-4), Ethyl-3-{(5′-Methylisoxazole-3′-carbonyl)-L-ValΨ(COCH2)-L-(4-F-Phe)-L-((S)-Piper-Ala)}-E-Propenoate], in series [1], the half-maximal cytotoxic concentration (CC50) at 2 days was greater than 100 µM.

In series [1], `CC(C)C[C@H](NC(=O)OCc1ccccc1)C(=O)N[C@@H](Cc1ccccc1)C(=O)N[C@H](/C=C/c1ccno1)CCC(N)=O` [Comparison Compound #1, 5-(3′-(Cbz-L-Leu-L-Phe-L-Gln)-E-Propene)-Isoxazole, reference compound] had a CC50 at 2 days greater than 320 µM.

`Cc1cc(C(=O)N[C@H](C(=O)C[C@@H](Cc2ccc(F)cc2)C(=O)N[C@H](/C=C2\CCOC2=O)C[C@@H]2CCNC2=O)C(C)C)no1` [(B-3), 2-{(5′-Methylisoxazole-3′-carbonyl)-L-ValΨ(COCH2)-L-(4-F-Phe)-L-((S)-Pyrrol-Ala)}-E-(α-Vinyl-γ-Butyrolactone)] registered a half-maximal cytotoxic concentration (CC50) at 2 days in series [1] greater than 100 µM.

`CCOC(=O)/C=C/[C@H](CCC(N)=O)NC(=O)[C@H](Cc1ccccc1)NC(=O)[C@H](CC(C)C)NC(=O)c1ccno1` [(A-2), Ethyl-3-((Isoxazole-5′-carbonyl)-L-Leu-L-Phe-L-Gin)-E-Propenoate] registered a half-maximal cytotoxic concentration (CC50) at 2 days in series [1] greater than 100 µM.

In series [1], `CCOC(=O)/C=C/[C@H](CCC(N)=O)NC(=O)[C@H](Cc1ccc(F)cc1)N(C)C(=O)[C@H](CC(C)C)NC(=O)c1cc(C)on1` [(A-12), Ethyl-3-{(5′-Methylisoxazole-3′-carbonyl)-L-Leu-NCH3-L-(4-F-Phe)-L-Gln}-E-Propenoate] came in with a CC50 at 2 days greater than 100 µM.

For orientation: EC50 means the midpoint of the concentration-response curve. By CC50 is commonly meant the concentration giving 50% cytotoxicity. A low value points to greater toxicity to the cells. As usually defined, the melting point is the temperature of the solid-liquid transition.
